Measurements published in patent publication US20060252798A1, “Metal ion chelators and therapeutic use thereof” (priority 2003, published 2006).

Experiments:
[1] = system: SK-N-MC neuroepithelioma cells; assay: MTT cellular proliferation assay, SK-N-MC; format: cell-based, human; details: Homo sapiens, SK-N-MC; Table 3; 0-25 μM, 72 h, MTT; mean ± SD; read-out: IC50 SK-N-MC neuroepithelioma
Procedure: […] […] After this incubation, 0.01 mL of MTT was added to each well and the plates incubated for 2 h at 37° C. The cells were then solubilised by adding 0.1 mL of 10% SDS-50% isobutanol in 0.01 M HCl and the plates then read at 570 nm on a scanning multiwell spectrophotometer (Titertek Multiscan; Beckman Instruments Inc, California). MTT colour formation was directly proportional to the number of viable cells.
The effect of the compounds on the proliferation of SK-N-MC neuroepithelioma cells was examined using the MTT assay (described above).
(§1) Dp2mT served as a negative control.

SK-Mel-28 melanoma cells = assay: MTT cellular proliferation assay, SK-Mel-28; format: cell-based, human; details: Homo sapiens, SK-MEL-28, 72 h, Table 3, mean ± SD
Procedure: The final concentration of the compounds was 0.39-50 μM. […] […] After this incubation, 0.01 mL of MTT was added to each well and the plates incubated for 2 h at 37° C. The cells were then solubilised by adding 0.1 mL of 10% SDS-50% isobutanol in 0.01 M HCl and the plates then read at 570 nm on a scanning multiwell spectrophotometer (Titertek Multiscan; Beckman Instruments Inc, California). MTT colour formation was directly proportional to the number of viable cells.
as §1
(§2) Dp2mT served as a negative control as the methyl group at the 2-position hinders Fe-chelation.

[2] = system: MCF-7 breast cancer cells; assay: MTT cellular proliferation assay, MCF-7; format: cell-based, human; details: Homo sapiens, MCF7, 72 h, Table 3; 72 h, MTT; mean ± SD; read-out: IC50 MCF-7 breast cancer
Procedure: […] […] […] After this incubation, 0.01 mL of MTT was added to each well and the plates incubated for 2 h at 37° C. The cells were then solubilised by adding 0.1 mL of 10% SDS-50% isobutanol in 0.01 M HCl and the plates then read at 570 nm on a scanning multiwell spectrophotometer (Titertek Multiscan; Beckman Instruments Inc, California). MTT colour formation was directly proportional to the number of viable cells.
as §1, §2

[3] = Maximum tolerated dose in CD2F1 hybrid mice; format: in vivo; details: female, CD2F1, mouse, in vivo, iv
Procedure: BALB/c and DBA/2 mice were obtained from Animal Resources Centre (University of New South Wales (UNSW), Sydney, Australia) and crossed to produce CD2F1 animals (all procedures used were approved by the Animal Ethics Committee, UNSW). Groups of eight female CD2F1 mice (8-10 weeks old) were fed and watered ad-libitum, and injected via the tail vein with compounds being studied in 30% propylene glycol in 0.9% sterile saline, twice a day, 6 h apart, 5 days/week for 2 weeks. The maximum tolerated dose (MTD) was defined as the dose at which 30% of a cohort either died or lost weight in excess of 10%.^19

M109 lung carcinoma = assay: Inhibition of M109 lung carcinoma growth in vivo; set-up: species or system mouse; details: 6 mg/kg (MTD), day 12
Procedure: Inhibition of M109 Lung Cancer Cell Growth by Iron Chelators In Vivo Female CD2F1 mice aged 8-10 weeks old were sc implanted with 1×10^5 M109 cells. The tumour cells were passaged in CD2F1 mice by preparing a brei from the tumour and injecting it sc.^20 Dp44mT was dissolved in 30% (v/v) propylene glycol in saline and injected iv 4 days after tumour engraftment, twice daily for 5 days followed by a “rest period” of 2 days when the animal was not injected. On the twelfth day after tumour implantation, mice were sacrificed using methoxyfluorane and cardiac puncture performed. Blood counts and erythrocyte indices were measured using a Sysmex Blood Counter (Prince of Wales Hospital, Sydney, Australia). Mouse body weight changes during the treatment period were recorded. The tumours were weighed and fixed for histological examination. The experimental groups consisted of eight mice for the control and each treatment (Table 5).
As a relevant positive control, animals were administered Triapine® at its MTD (6 mg/kg). The tumour weight was measured on the twelfth day after the tumour cell implantation.

[4] = Mouse weight loss and haematological indices in M109-bearing mice; format: in vivo; details: Triapine 6 mg/kg; Mean ± SEM
Procedure: The tumour cells were passaged in CD2F1 mice by preparing a brei from the tumour and injecting it sc.^20 Dp44mT was dissolved in 30% (v/v) propylene glycol in saline and injected iv 4 days after tumour engraftment, twice daily for 5 days followed by a “rest period” of 2 days when the animal was not injected. On the twelfth day after tumour implantation, mice were sacrificed using methoxyfluorane and cardiac puncture performed. Blood counts and erythrocyte indices were measured using a Sysmex Blood Counter (Prince of Wales Hospital, Sydney, Australia). Mouse body weight changes during the treatment period were recorded. The tumours were weighed and fixed for histological examination. The experimental groups consisted of eight mice for the control and each treatment (Table 5).

Molecule `NC(=S)NN=Cc1ncccc1N` [Triapine, 3-aminopyridine-2-carboxaldehyde thiosemicarbazone] has an IC50 [1] of 260 nM, an IC50 (SK-Mel-28 melanoma cells) of 2600 ± 600 nM and an IC50 [2] of 3000 ± 1500 nM. The MTD at 2 weeks [3] was 6 mg/kg, the tumour weight (M109 lung carcinoma) was 10 % of the control and the Body weight loss [4] was 5.3 ± 0.4 g. The Haematocrit [4] was 0.28 ± 0.01, the Haemoglobin [4] was 8.6 ± 0.5 g/dL and the Platelets [4] was 976 ± 171 10^9/L. The RBC [4] was 6.1 ± 0.4 10^12/L and the WBC [4] was 1.4 ± 0.3 10^9/L.
